Source: the METLIN SMRT retention time set (Domingo-Almenara et al. 2019)

Experiment: gradient 5% acetonitrile 3 min, to 50% in 2 min, to 85% in 15 min, held 3 min, 100 µL/min
Details: column: Zorbax Extend-C18 2.1 x 50 mm; eluents: water / acetonitrile, 0.1% formic acid
Summary of the method: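 A Zorbax Extend-C18 column (2.1 × 50 mm, 1.8 μm) run at 100 μL/min with water and acetonitrile, both containing 0.1% formic acid, separated mixtures of ~100 pure standards. The HPLC was coupled to a quadrupole time-of-flight mass spectrometer operated in positive and negative ionization mode, with dead and dwell volumes of 40 μL and 900 μL. Each retention time was taken from a computationally picked adduct peak that was then manually inspected.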

SMILES	RP-LC retention time [s]
O=C(NCCN1CCCCC1)C1CCCN(c2cnc3nccnc3c2)C1 (centres undefined)	562
CCc1noc(NC(C)=O)c1-c1ccc(C)c(S(=O)(=O)Nc2c(C)cccc2C)c1	861
Cc1ccccc1CNC(=O)C1(C)CCCN(C(=O)Nc2cccc(Cl)c2C)C1 (centres undefined)	1060
CCCc1ccc(S(=O)(=O)N2CCCC2c2nc(-c3cccc(F)c3)no2)cc1 (centres undefined)	1270
COC(=O)c1cc2c([nH]c1=O)CC(c1ccc(Cl)cc1)CC2=O (centres undefined)	728
Cc1ccc(Nc2c(-c3ccc(O)cc3)nc3ccc(Cl)cn23)cc1	696
Cc1ccc(N2C=C(C(=O)N3CCOCC3)S(=O)(=O)c3ccc(Cl)cc32)cc1F	886
COc1cccc2cc(C(=O)N3CC(c4nc(-c5cccs5)no4)C3)oc12	856
Cc1cn2c(=O)c(S(=O)(=O)N3CCN(c4ccccn4)CC3)c(C)nc2s1	601
CN1C[C@@H](NS(=O)(=O)N(C)C)C[C@@H]2c3cccc4c3c(cn4C)C[C@H]21	698
Cc1ccc(CNC(=O)c2cc3n(n2)CC(C)(C(=O)NCCC(C)C)N(C)C3=O)cc1 (centres undefined)	802
O=C(c1cccs1)N1CCCC1c1ccc(F)cc1 (centres undefined)	910
CC(C)CC(=O)N1CCCC(c2nc(CCNC(=O)C3CCC3)cs2)C1 (centres undefined)	734
Cn1nccc1-c1cccc(-c2noc(Cc3ccc(Br)cc3)n2)c1	1150
c1ccc(-c2nc(-c3ccnc(N4CCOCC4)c3)no2)cc1	942
Cc1ccc(C)c(NS(=O)(=O)c2cc3c(s2)CCN(C(=O)C2CC2)C3)c1	864
O=C(NCCc1c[nH]c2ccccc12)c1ccc(N2C(=O)CCS2(=O)=O)cc1Cl	777
COc1ccc(NC(=O)C2CCc3nc(N4CCC(C)CC4)ncc3C2)c(OC)c1 (centres undefined)	873
CCNC(=O)c1nccnc1NC(=O)c1ccccc1	743
CCOc1ccc2nc(NC(=O)C3CCCN3S(=O)(=O)c3cc(C(=O)OC)n(C)c3)sc2c1 (centres undefined)	976
Clc1cccc(-c2nnc(-c3nc(NCc4cccnc4)c4ccccc4n3)o2)c1	705
O=C(NCC(=O)N1CC[C@H](NC2CCC(O)(c3ccc(-c4ncccn4)cn3)CC2)C1)c1cccc(C(F)(F)F)c1 (some centres undefined)	674

SMILES	RP-LC retention time [s]
CCOC(=O)c1cc([N+](=O)[O-])sc1NC(=O)c1nc2ccccc2s1	1270
CCC(Sc1nc2cc(OC)c(OC)cc2c2nc(C)nn12)C(=O)NCc1ccco1 (centres undefined)	746
Cn1cc(-c2cc3n(n2)CCC(=O)N3CCCC(=O)N2CCOCC2)c2ccccc21	692
O=C1NCCCn2cc(S(=O)(=O)N3CCN(c4cccc(C(F)(F)F)c4)CC3)cc21	830
CN(C1CCc2nn(CC3CC3)c(=O)n2CC1)S(=O)(=O)c1cccnc1 (centres undefined)	659
Cc1ccc(-c2noc(C3CCCN3C(=O)C3CCN(S(=O)(=O)c4ccc(C)cc4)CC3)n2)cc1 (centres undefined)	1080
CCN1C(=O)CCc2cc(NC(=O)COc3ccc(F)cc3)ccc21	801
Cc1cccc(C)c1NC(=O)N1CCCC1c1nncn1C1CCCC1 (centres undefined)	722
COc1cc(Cl)c(NC(=O)C2CC(=O)N(c3cccc(NC(C)=O)c3)C2)c(OC)c1 (centres undefined)	711
COc1cccc(-c2cc(C(=O)N3CCC(NC(=O)c4cccc(Cl)c4)CC3)[nH]n2)c1	740
COCCN(C)C(=O)c1cn(C2CN(C(=O)NCC(C)C)C2)nn1	624
O=C(c1cc2ccccc2o1)N1CCCC(c2nnc(C(F)(F)F)o2)C1 (centres undefined)	872
Cc1noc(-c2cccc(OC3CN(S(=O)(=O)c4cn(C)cn4)C3)c2)n1	746
Cc1cccc(NC(=O)N2CCc3nc(-c4ccc(F)cc4)ncc3C2)c1C	974
COc1cc(C)c(C(C)C)cc1S(=O)(=O)Nc1cccc(C)n1	781
O=C(NCc1ccc2c(c1)OCO2)c1ccc(OCC(=O)C2CC2)cc1	736
COC(=O)c1ccc(-c2nc3cnccn3c2Nc2c(C)cccc2C)cc1	914
COc1ccc(CNC(=O)Cn2nc(C(=O)N3CCCC3)c3ccccc32)cc1	773
COc1ccc(Nc2nc(-c3nnn(-c4cccc(Cl)c4)c3C)ns2)cc1OC	963
O=C(CCSc1ccccc1)NCCn1nc(-c2ccc(Cl)cc2)ccc1=O	600
Cc1cccc(N2CC(C(=O)NC(C)C)CC2=O)c1 (centres undefined)	678
Cc1cc(C)cc(OCC(=O)N2CCCCC2CCN2CCOCC2)c1 (centres undefined)	668
